Laboratory results from patent US8057992B2, “Methods for identifying peptides that bind to intact oocytes” (Auburn University, priority 2007, dated 2011).
Entries after “also recorded” stand apart in the source; their conditions may differ. Ends that are not written are not given here.

How the values were obtained:
[1] = tested on: ZP proteins on intact canine oocytes; assay: Phage display selection of ZP-binding peptides on intact canine oocytes; conditions: four rounds of selection, 1000 intact canine oocytes per round, 7-mer and 12-mer phage display libraries
Description: The phage display procedure developed herein utilizes intact oocytes surrounded by ZP proteins. In this procedure, ZP proteins remain on oocytes in their native conformation, unlike previously published selection protocols that use denatured ZPs immobilized on an artificial solid support. The procedure involves incubating isolated oocytes with a phage display library followed by washing of unbound phage. Oocytes are lysed, and bound phage are amplified in bacterial cultures. Enrichment in ZP-binding phage clones is achieved in four subsequent selection rounds, after which selected phage DNAs are sequenced and translated to obtain peptide sequences.
Collection of dog ova: Oocytes were isolated from dog ovaries obtained from spay/neuter clinics. All ovaries were collected from bitches (six months of age and older) undergoing elective ovariohysterectomy. Approximately 20-30 oocytes from each pair of ovaries were isolated. Ova were washed extensively, retrieved by visual inspection at 12× magnification, washed two additional times, pooled and frozen before the use. Oocytes isolated from dog ovaries were characterized by microscopic evaluations.
Identification of peptides that bind to ZP proteins on intact canine oocytes: Peptides that specifically bind to ZP proteins were identified by utilizing two phage display libraries purchased from New England BioLabs, including: PhD-C7C Peptide 7-mer Library Kit and PhD-12 Peptide Library Kit. The utilized approach selects peptides that mimic the sperm antigen at the level of the ZP-sperm binding (FIG. 2).
Four rounds of selection were performed using each library. For each selection round, an aliquot of the primary library was diluted in a blocking buffer and incubated with 1000 intact canine oocytes surrounded by ZP. After incubation, phages expressing peptides not bound to oocytes were washed away and the bound phages were recovered by lysis. […] Peptide sequences from phage display selection on intact dog oocytes surrounded by ZP included: LNSFLRS (SEQ ID NO:1), LSTALRS (SEQ ID NO:2), SSWYRGA (SEQ ID NO:3), TGTSTRA (SEQ ID NO:4), YLPIYTIPSMVY (SEQ ID NO:5), NNQSPILKLSIH (SEQ ID NO:6), and AHPNTAPIHPKF (SEQ ID NO:7). Based on the peptide sequences, the following five antigens were prepared: antigen 1—YLPVGGLRRIGG (SEQ ID NO:14), antigen 2—CLNSFLRSC-KGG (SEQ ID NO:9), antigen 3—YLPIYTIPSMVY-GG (SEQ ID NO:12), antigen 4—NNQSPILKLSIH-GG (SEQ ID NO:13), and antigen 5—CSSWYRGAC-KGGY (SEQ ID NO:11).

[2] = tested on: dogs; assay: Peptide ELISA of serum from immunized dogs for anti-peptide antibodies; format: in vivo, dog
Description: Immunization of dogs with ZP-binding peptides conjugated to a carrier protein: The peptides were synthesized by Global Peptide Services (Fort Collins, Colo.) at a yield of 10-20 mg having 95% purity. Two of the selected peptides were 7 amino acids long and the other two were 12 amino acids long. Antigen was taken from the literature (6) to serve as a control. To assure maximum immunogenicity, the peptides were conjugated to keyhole-limpet hemocyanin (KLH), a carrier protein. For vaccinations, the antigen was formulated to include: 250 μg of KLH conjugated peptide mixed with aluminum hydroxide adjuvant (Alhydrogel 85) and 100 μg canine specific immunostimulatory oligodeoxynucleotide (CpG). Four of the selected peptides and one control peptide were injected intramusculary into each dog (one dog/peptide). Booster immunizations were given twice to achieve high titer antisera. Each immunized dog served as his/her own control since none were expected to have preexisting antibodies to the selected peptides.
Evaluation of serum collected from immunized dogs for anti-ZP-binding peptide antibodies: Serum samples were collected from all dogs prior to immunization and biweekly or monthly thereafter during a 12-month period. The samples were tested for the presence of anti-peptide antibodies in a peptide ELISA format. […] The immunization scheme was as described above.

[3] = tested on: canine sperm cells; assay: Sperm cell ELISA of serum from dogs immunized with antigen 4; format: in vivo; conditions: three dogs immunized with antigen 4; sperm cell ELISA at serum dilution 1:50 (FIG. 5)

Substance	binding to ZP (peptide sequences of phage selected on intact dog oocytes) [1]	other results
AHPNTAPIHPKF (Phage library random peptide insert) [SEQ ID NO:7]	responsible for binding to ZP	
LNSFLRS (Phage library random peptide insert) [SEQ ID NO:1]	responsible for binding to ZP	
LSTALRS (Phage library random peptide insert) [SEQ ID NO:2]	responsible for binding to ZP	
NNQSPILKLSIH (Phage library random peptide insert) [SEQ ID NO:6]	responsible for binding to ZP	
NNQSPILKLSIH-GG (NNQSPILKLSIHGG; also: conjugated to carrier protein) [antigen 4]		immunogenicity: anti-peptide antibody levels in serum ([2]; one dog per antigen, 250 μg KLH conjugated peptide with aluminum hydroxide adjuvant and CpG, intramuscular, two boosts, peptide ELISA at serum dilution 1:6400 (FIG. 3)): specific anti-peptide antibodies at high levels; also recorded: high immunogenic properties; titers of anti-peptide antibodies ([2]; three additional dogs, same immunization scheme, peptide ELISA at serum dilution 1:6400 (FIG. 4)): high titers of anti-peptide antibodies; binding of raised antibodies to canine sperm cells (anti-sperm antibody levels) [3]: bind to canine sperm cells
SSWYRGA (Phage library random peptide insert) [SEQ ID NO:3]	responsible for binding to ZP	
TGTSTRA (Phage library random peptide insert) [SEQ ID NO:4]	responsible for binding to ZP	
YLPIYTIPSMVY (Phage library random peptide insert) [SEQ ID NO:5]	responsible for binding to ZP	
